Laboratory results: paper PMC2943414 (Journal of the American Chemical Society, 2010)

Molecular target: flavodoxin (Nitratidesulfovibrio vulgaris, UniProt P00323, W140F)
Test: FMN retained on purification
Type: binding
Conditions: oxidized state; as purified, before FMN removal

flavodoxin, sequence (P00323 whole entry W140F): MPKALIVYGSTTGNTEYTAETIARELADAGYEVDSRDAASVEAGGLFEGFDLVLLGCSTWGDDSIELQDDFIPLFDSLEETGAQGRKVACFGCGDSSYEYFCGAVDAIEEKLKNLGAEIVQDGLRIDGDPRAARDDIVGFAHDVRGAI

Cc1cc2nc3c(=O)[nH]c(=O)nc-3n(C[C@H](O)[C@H](O)[C@H](O)COP(=O)(O)O)c2cc1C [FMN]
FMN retained on purification: the two flavodoxin mutants (W60FY98F and W140F) contained the oxidized FMN
